Measured values as given in US11696917B2, “Agent enhancing antitumor effect using pyrazolo[3,4-d]pyrimidine compound” (TAIHO PHARMACEUTICAL CO., LTD., priority 2017, dated 2023).

Experiments:
[1] = system: Human stomach cancer cells 4-1st; assay: Combination of Compound 1 and trastuzumab (in vivo), subcutaneous tumor in nude mice; parameters: species or system nude mouse (BALB/cAJcl-nu/nu); details: for T/C (%): Day 15; for BWC (%) Day 15 Mean: mouse, in vivo, po
[2] = system: human stomach cancer cell line NCI-N87; assay: Combination of Compound 1 and capecitabine (in vivo), subcutaneous tumor in nude mice; parameters: species or system nude mouse (BALB/cAJcl-nu/nu); details: for T/C (%): Day 15
Procedure: A human stomach cancer cell line NCI-N87 was obtained from American Type Culture Collection (ATCC). The cell line was cultured at 37° C. in a 5% CO2 incubator using RPMI-1640 (containing 4.5 g/L glucose, 10 mM HEPES, and 1 mM sodium pyruvate) (Wako Pure Chemical Industries, Ltd.) medium containing 10% fetal bovine serum (FBS).
The NCI-N87 cells were resuspended at a concentration of 8×10^7 cells/mL in PBS.
The cell suspension was subcutaneously transplanted in an amount of 8×10^6 cells/0.1 mL to the right chest of a 6-week-old nude mouse (BALB/cAJcl-nu/nu, CLEA Japan, Inc.) using a 1 mL syringe for tuberculin and a 25 G injection needle.
Electronic calipers were used in tumor size measurement.

[3] = system: KPL-4 (human breast cancer); assay: Combination of Compound 1 and other antitumor agents (in vitro), CellTiter-Glo, median effect method; type: cell-based
Procedure: The supplier of each reagent, the suppliers of tumor cell lines, the media used, and the numbers of cells to be inoculated are shown in the tables below.
The cells were inoculated at 20 μL/well to a 384-well culture plate (Corning Inc.). The plate inoculated with the cells were cultured in an incubator set to 37° C. and 5% CO2. On the day following inoculation, each of mixed solutions of Compound 1 and each other antitumor agent at varying combinations of concentrations was added to the cells. Specifically, 8 serial dilutions (including (0 nM)) of Compound 1 and 10 serial dilutions (including (0 nM)) of the other antitumor agent were prepared using Leibovitz's L-15 medium containing 10% FBS, or ATCC formulated RPMI-1640 medium containing 10% FBS. Drug solutions in which equal amounts of the respective serial dilutions of the compounds were dispensed were mixed at a ratio of 1:1 to prepare a total of 80 mixed drug solutions including every combination. Each of these mixed drug solutions was added at 5 μL/well (N=4) to the plate, followed by further culture for 3 days under conditions of 37° C. and 5% CO2.
Three days later, CellTiter-Glo™ 2.0 Reagent (Promega Corporation) was added thereto at 25 μL/well, and chemiluminescence was measured using a plate reader (EnSpire® Multimode Plate Reader, PerkinElmer Japan Co., Ltd.).
The enhancement of an effect by combined use of the drugs was evaluated according to a method known in the art (a method described in Trends Pharmacol. Sci., 4, 450-454, 1983 or Pharmacol Rev., 58 (3), 621-81, 2006).
An average value from 4 wells of each combination was calculated from the obtained data, and a cell survival rate normalized against a control supplemented with a medium containing a vehicle was calculated. A Fa (fraction of affect) value was calculated by subtracting the cell survival rate from 1. Median effect analysis software CalcuSyn 2.0 (CalcuSyn, Inc.) for calculation by the median effect method was used in the calculation of CI.
As for the combinations of the concentrations of both the drugs for calculating CI, a Fa value closer to 1 presumably means a concentration range in which one of the drugs had too strong an effect, and a Fa value closer to 0 presumably means a concentration range in which any of the drugs had too weak an effect. Since these concentration ranges were not appropriate for the discussion of a synergistic effect, combinations that satisfied 0.2 S Fa 0.8 were extracted from the combinations of the respective concentrations of Compound 1 and the other antitumor agent on the basis of the calculated Fa value.
An effect of combined use was determined as shown in the table below (Pharmacol Rev., 58 (3), p. 621-81, 2006).

[4] = system: Human stomach cancer cells 4-1st; assay: Combination of Compound 1 and trastuzumab emtansine (in vivo), subcutaneous tumor in nude mice; details: for T/C (%): Day 15; for BWC (%) Day 15 Mean: mouse, in vivo, po
Source text: Human stomach cancer cells 4-1st were obtained as fragment tumor from the Central Institute for Experimental Animals. Tumor was excised approximately one month after subcutaneous transplantation and passage in a nude mouse (BALB/cAJcl-nu/nu, CLEA Japan, Inc.), and prepared into a fragment of approximately 2 mm square. A transplantation needle was packed with one fragment and subcutaneously inserted from around the right most distal rib of a nude mouse. After entrance to the right back, the inner cylinder was pushed to eject and transplant the tumor. Electronic calipers were used in tumor size measurement, and the major axis and the minor axis of the tumor of each mouse were measured by sandwiching the tumor between the measuring surfaces of the electronic calipers (Days 0, 4, 8, 11 and 15). A tumor volume (TV) was calculated from the major axis and the minor axis. A relative tumor volume (RTV) and a rate of change in relative tumor volume (T/C) were calculated from the calculated tumor volume. TV, RTV, and T/C were calculated according to the following expressions. Tumor volume TV (mm^3)=(Major axis, mm)×(Minor axis, mm)×(Minor axis, mm)/2 Relative tumor volume RTV=(TV on the day of measurement)/(TV on the day of grouping) Rate of change in relative tumor volume T/C (%)=(Average RTV of an administration group)/(Average RTV of a control group)×100
An electronic balance for animals was used in body weight measurement. A rate of change in body weight on day n (BWCn) was calculated from the body weight on day n (BWn) according to the following expression. Rate of change in body weight BWCn (%)=(BWn−BW0)/BW0×100
Nude mice whose TV reached 100 to 300 mm^3 were selected, and six animals were assigned to each group by the equal number method (MiSTAT (ver. 2.0)) such that average TV was equalized among groups.
The presence or absence of an effect of combined use and toxicity were determined from tumor sizes and body weights on the day of grouping (Day 0) and the day of evaluation (Day 15). During the administration period, the body weights were measured every day for the calculation of the amount of a dosing solution.

[5] = Compound 1 7.5 mg/kg/day p.o. Days 1-14
[6] = Compound 1 15 mg/kg/day p.o. Days 1-14
[7] = Compound 1 30 mg/kg/day p.o. Days 1-14
[8] = Compound 1 68.6 nM + Paclitaxel 0.0229 nM, ratio 1:0.00033, KPL-4
[9] = Compound 1 68.6 nM + Paclitaxel […], ratio 1:0.00011, KPL-4
[10] = Compound 1 206 nM + Paclitaxel 0.617 nM, ratio 1:0.0030, KPL-4
[11] = Compound 1 206 nM + Paclitaxel 1.85 nM, ratio 1:0.0090, KPL-4
[12] = Compound 1 617 nM + Paclitaxel 1.85 nM, ratio 1:0.0030, KPL-4
[13] = Compound 1 1852 nM + Paclitaxel 1.85 nM, ratio 1:0.0010, KPL-4
[14] = Compound 1 5556 nM + Paclitaxel 1.85 nM, ratio 1:0.00033, KPL-4
[15] = Compound 1 5556 nM + Paclitaxel 5.56 nM, ratio 1:0.0010, KPL-4
[16] = Compound 1 16667 nM + Paclitaxel 1.85 nM, ratio 1:0.00011, KPL-4
[17] = Compound 1 50000 nM + Paclitaxel 1.85 nM, ratio 1:0.000037, KPL-4

Structure (SMILES): C=CC(=O)N1CCC[C@@H](n2nc(C(=O)Nc3ccc(CC(=O)N(C)C)c(C)c3C)c3c(N)ncnc32)C1 [Compound 1, (R)-1-(1-acryloylpiperidin-3-yl)-4-amino-N-(4-(2-(dimethylamino)-2-oxoethyl)-2,3-dimethylphenyl)-1H-pyrazolo[3,4-d]pyrimidine-3-carboxamide]
- RTV Day 15 Mean + SD [1, 5]: 6.55 ± 0.37
- T/C (%) [1, 5]: 49.0%
- RTV Day 15 Mean + SD [1, 6]: 3.77 ± 0.32
- T/C (%) [1, 6]: 28.2%
- BWC (%) Day 15 Mean ([1]; 7.5 mg/kg/day): 5.06%
- BWC (%) Day 15 Mean ([1]; 15 mg/kg/day): 0.82%
- BWC (%) Day 15 Mean [2, 6]: 8.35%
- RTV Day 15 Mean ± SD [2, 6]: 1.69 ± 0.39
- T/C (%) [2, 6]: 40.8%
- BWC (%) Day 15 Mean [2, 7]: 6.43%
- RTV Day 15 Mean ± SD [2, 7]: 0.67 ± 0.15
- T/C (%) [2, 7]: 16.3%
- CI [3, 8]: 0.03
- Fa [3, 8]: 0.44
- CI [3, 9]: 0.15
- Fa [3, 9]: 0.32
- CI [3, 10]: 0.50
- Fa [3, 10]: 0.33
- CI [3, 11]: 0.30
- Fa [3, 11]: 0.52
- CI [3, 12]: 0.31
- Fa [3, 12]: 0.54
- CI [3, 13]: 0.36
- Fa [3, 13]: 0.55
- CI [3, 14]: 0.48
- Fa [3, 14]: 0.57
- CI [3, 15]: 0.44
- Fa [3, 15]: 0.78
- CI [3, 16]: 0.38
- Fa [3, 16]: 0.66
- CI [3, 17]: 0.13
- Fa [3, 17]: 0.86
- RTV Day 15 Mean ± SD [4, 5]: 5.92 ± 0.38
- T/C (%) [4, 5]: 51.6%
- RTV Day 15 Mean ± SD [4, 6]: 3.58 ± 0.41
- T/C (%) [4, 6]: 31.2%
- BWC (%) Day 15 Mean ([4]; 7.5 mg/kg/day): 7.41%
- BWC (%) Day 15 Mean ([4]; 15 mg/kg/day): 3.63%
